Columns and labels:
[1] = DMSO; reference value of ICG standard; cited from earlier work
SKBR3-GFP-Luc cells = experiment: Cellular fluorescence intensity imaging (NIR channel) of dye uptake; format: cell-based, human; settings: 5 μM, 24 h incubation
Description: SKBR3-GFP-Luc cells (Dual labeled stable SK-BR-3 expressing green fluorescent protein (GFP) and luciferase, SL032, GeneCopoeia, Rockville, MD) were cultured in Dulbecco's Modified Eagle Medium (DMEM high glucose, Gibco) supplemented with 10% Fetal Bovine Serum (FBS), 1% penicillin/streptomycin and 5 μg/mL puromycin, and maintained in a humidified incubator at 37° C. with 5% CO2 atmosphere. For imaging experiments, these GFP labeled HER2+ human breast cancer cells were plated in Fluorobrite DMEM media (Gibco) supplemented with 10% FBS and 1% pen/strep in an 8-well chamber slide (6.0×10^4 cells in 200 μL media per well). […] All cells were washed with DPBS (300 μL×2) before mounting (Fluoromount-G, #1 coverslip) and imaging the slides with either a Zeiss AxioImager Z2 fluorescence microscope or FLIM.
Fluorescence intensity imaging was conducted on a Zeiss Axioimager.Z2 microscope equipped with a Hamamatsu ORCA Flash 4.0 V2 camera, X-Cite Xylis LED-based light source, and 20× Zeiss Plan-Apochromat air objective (0.8 N.A.) The imaging parameters included DAPI: excitation 335-383 nm/emission 420-470 nm/exposure time […] GFP: ex 450-490 nm/500-550 nm/46 ms exposure and NIR: ex 715-752 nm/760-855 nm/1 s exposure. […]

[2] = Relative fluorescence quantum yield using ICG as a standard; format: physicochemical; settings: DMSO
Description: The absorption spectra of 4 and 15 were measured in both methanol (FIG. 4(A-B)) and DMSO (FIG. 5(A-D)). […] The broad emission bands allow flexibility in the choice of excitation and fluorescence wavelengths in analytical and biological assays. The relative fluorescence quantum yields of dyes 4 and 15 measured in DMSO using ICG as a standard show the values of 0.24 and 0.093 respectively compared to 0.12 for ICG.

[3] = Absorption and fluorescence emission spectra of the dyes in solvent; format: physicochemical; settings: for Emission max, nm: excitation 700 nm
Description: Absorption spectra were recorded on a Beckman Coulter DU 640 UV-visible spectrophotometer (Brea, CA) and fluorescence spectra were recorded on a Fluorolog-3 spectrofluorometer (Horiba Jobin Yvon, Inc., Edison, NJ). All fluorescence measurements were conducted at room temperature and were recorded at excitation of 700 nm and emission scan from 715-900 nm.

Solubility in water = format: physicochemical
[4] = Fluorescence lifetime (FLT) by time-correlated single photon counting; format: physicochemical
Description: Fluorescence lifetimes (FLT) were measured using time-correlated single photon counting (TCSPC implemented in Fluorolog-3, Horiba Jobin Yvon) with a 700 nm excitation source NanoLed® (impulse repetition rate 1 MHz) at 90° to the PMT R928P detector (Hamamatsu Photonics, Japan). […] We chose DMSO as the solvent for this study because it provides a similar environment to the biological systems. The detector was set to 740 nm with a 20 nm bandpass and data were collected until the peak signal reached 10,000 counts.

Quantum yield (relative fluorescence quantum yield) [2] | Abs max, nm ([3]; DMSO) | Emission max, nm ([3]; DMSO) | Abs max, nm ([3]; Methanol) | Emission max, nm ([3]; Methanol) | Solubility in water (Solubility in water) | Fluorescent lifetime, ns ([4]; DMSO, 700 nm excitation, detector 740 nm) | Fluorescent lifetime, ns ([4]; Methanol) | SMILES | Fluorescence quantum yield of the standard [1] | Cellular internalization / uptake judged by signal intensity in NIR channel (SKBR3-GFP-Luc cells)
– | – | – | – | – | – | – | – | CC1(C)C(/C=C/C=C/C=C/C=C2\N(CCCCS(=O)(=O)O)c3ccc4ccccc4c3C2(C)C)=[N+](CCCCS(=O)(=O)[O-])c2ccc3ccccc3c21 [ICG, indocyanine green] | 0.12 | –
0.24 | 719 nm | 744 nm | 704 nm | 731 nm | low solubility in water | 0.65 ns | 0.28 ns | O=c1cc2/c(=C/C=C/C=C/c3c4c5c(cc(O)cc5oc3=O)OC(O)=C4)c(=O)oc3cc(O)cc(o1)c32 [Dye 4] | – | essentially no appreciable uptake

Reference: patent US20250099626A1, “COMPOSITIONS AND METHODS FOR OXONOL DYES WITH NEAR INFRARED FLUORESCENCE” (Washington University, priority 2023, published 2025)
